Reference: patent US20260028365A1 (BIOGEN MA INC., priority 2022, published 2026)
Structures can show the parent of a compound that is named as a salt.

Columns and labels:
[1] = molecular target: JH2 domain of human Tyk2 (Homo sapiens (Human), UniProt P29597); assay: JH2 Biochemical Assay (TR-FRET probe displacement); type: binding; conditions: TR-FRET probe displacement, JH2 domain of human Tyk2
[2] = molecular target: Tyk2 (Homo sapiens (Human), UniProt P29597); assay: pSTAT4 Cell Assay (MSD, NK92 cells); type: cell-based; conditions: MSD
Tyk2, sequence (P29597 whole entry): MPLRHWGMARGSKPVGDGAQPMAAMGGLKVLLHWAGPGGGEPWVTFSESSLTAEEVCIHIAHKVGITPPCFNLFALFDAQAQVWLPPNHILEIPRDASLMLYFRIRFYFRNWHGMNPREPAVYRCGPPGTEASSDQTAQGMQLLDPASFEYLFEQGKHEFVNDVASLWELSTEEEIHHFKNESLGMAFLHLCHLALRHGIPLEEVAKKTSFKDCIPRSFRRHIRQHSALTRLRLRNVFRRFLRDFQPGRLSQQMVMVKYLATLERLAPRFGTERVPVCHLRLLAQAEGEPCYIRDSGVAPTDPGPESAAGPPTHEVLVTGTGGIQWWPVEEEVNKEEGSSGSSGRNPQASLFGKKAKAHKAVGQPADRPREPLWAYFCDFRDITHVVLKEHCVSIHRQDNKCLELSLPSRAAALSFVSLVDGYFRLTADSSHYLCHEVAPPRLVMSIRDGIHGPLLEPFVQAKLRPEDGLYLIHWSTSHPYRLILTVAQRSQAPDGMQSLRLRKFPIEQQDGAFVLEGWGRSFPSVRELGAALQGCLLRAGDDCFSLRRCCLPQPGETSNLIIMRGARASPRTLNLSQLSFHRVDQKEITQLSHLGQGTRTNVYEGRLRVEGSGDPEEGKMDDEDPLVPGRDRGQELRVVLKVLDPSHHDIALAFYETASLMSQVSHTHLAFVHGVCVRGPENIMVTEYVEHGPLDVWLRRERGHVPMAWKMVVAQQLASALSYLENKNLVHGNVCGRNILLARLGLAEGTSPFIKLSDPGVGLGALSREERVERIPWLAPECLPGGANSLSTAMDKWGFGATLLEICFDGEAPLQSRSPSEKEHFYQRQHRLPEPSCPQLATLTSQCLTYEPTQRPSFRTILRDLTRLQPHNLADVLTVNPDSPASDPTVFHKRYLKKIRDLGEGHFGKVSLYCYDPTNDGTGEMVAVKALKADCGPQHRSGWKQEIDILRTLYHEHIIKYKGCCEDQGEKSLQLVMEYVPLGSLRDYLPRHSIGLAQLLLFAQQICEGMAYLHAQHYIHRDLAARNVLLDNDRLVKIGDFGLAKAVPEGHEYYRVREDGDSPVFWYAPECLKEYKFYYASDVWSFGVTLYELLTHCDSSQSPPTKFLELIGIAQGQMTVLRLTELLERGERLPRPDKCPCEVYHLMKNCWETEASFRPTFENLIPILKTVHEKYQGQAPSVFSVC

JH2 domain of human Tyk2, sequence (P29597 575-876): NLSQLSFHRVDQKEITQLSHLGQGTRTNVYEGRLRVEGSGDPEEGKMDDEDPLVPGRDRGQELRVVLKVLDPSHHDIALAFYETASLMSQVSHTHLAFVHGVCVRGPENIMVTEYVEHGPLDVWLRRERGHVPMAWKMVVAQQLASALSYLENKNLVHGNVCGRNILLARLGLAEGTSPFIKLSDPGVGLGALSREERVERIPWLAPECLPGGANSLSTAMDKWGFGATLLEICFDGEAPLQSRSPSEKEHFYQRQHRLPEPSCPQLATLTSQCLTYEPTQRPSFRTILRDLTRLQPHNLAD

Structure (SMILES)	IC50 [1] [nM]	IC50 [2] [nM]
CC(=O)Nc1cc(Nc2cccc(C3CCOC3)n2)c(-c2ccn(C)n2)cn1 (centres unmarked) [Example 208, N-(5-(1-methyl-1H-pyrazol-3-yl)-4-((6-(tetrahydrofuran-3-yl)pyridin-2-yl)amino)pyridin-2-yl)acetamide]	≤ 10	10 to 100
CO[C@H]1C[C@@H](Oc2cc(Nc3cc(NC(C)=O)ncc3-c3ccn(C)n3)nc(C(C)(F)F)c2)C1 [Example 211, N-(4-((6-(1,1-difluoroethyl)-4-((1s,3s)-3-methoxycyclobutoxy)pyridin-2-yl)amino)-5-(1-methyl-1H-pyrazol-3-yl)pyridin-2-yl)acetamide]	≤ 10	≤ 10
[2H]C([2H])([2H])C(=O)Nc1cc(Nc2cc(C)nc(C(C)(F)F)n2)c(-c2ccc(OC)nn2)cn1 [Example 213, N-(4-((2-(1,1-difluoroethyl)-6-methylpyrimidin-4-yl)amino)-5-(6-methoxypyridazin-3-yl)pyridin-2-yl)acetamide-2,2,2-d3]	≤ 10	≤ 10
CC(=O)Nc1cc(Nc2cccc(C(C)(C)F)n2)c(-c2ncc(F)cn2)cn1 [Example 215, N-(4-((6-(2-fluoropropan-2-yl)pyridin-2-yl)amino)-5-(5-fluoropyrimidin-2-yl)pyridin-2-yl)acetamide]	≤ 10	10 to 100
CC(=O)Nc1cc(Nc2ccnc(C(C)(C)F)c2)c(-c2ncc(F)cn2)cn1 [Example 216, N-(4-((2-(2-fluoropropan-2-yl)pyridin-4-yl)amino)-5-(5-fluoropyrimidin-2-yl)pyridin-2-yl)acetamide]	10 to 100	100 to 1000
COc1cc(-c2cnc(NC(C)=O)cc2Nc2ccnc(C(C)(F)F)c2)ncn1 [Example 217, N-(4-((2-(1,1-difluoroethyl)pyridin-4-yl)amino)-5-(6-methoxypyrimidin-4-yl)pyridin-2-yl)acetamide]	10 to 100	≥ 1000
CC(=O)Nc1cc(Nc2cc(C)nc(C(C)(F)F)n2)c(-c2ccc(C)nn2)cn1 [Example 219, N-(4-((2-(1,1-difluoroethyl)-6-methylpyrimidin-4-yl)amino)-5-(6-methylpyridazin-3-yl)pyridin-2-yl)acetamide]	≤ 10	≤ 10
CCc1cc(Nc2cc(NC(C)=O)ncc2-c2ccc(=O)[nH]n2)nc(C(C)(F)F)n1 [Example 221, N-(4-((2-(1,1-difluoroethyl)-6-ethylpyrimidin-4-yl)amino)-5-(6-oxo-1,6-dihydropyridazin-3-yl)pyridin-2-yl)acetamide]	10 to 100	≥ 1000
CC(=O)Nc1cc(Nc2cc(C)nc(C(C)(F)F)n2)c(-c2cc3n(n2)CCN(C(C)=O)C3)cn1 [Example 222, N-(5-(5-acetyl-4,5,6,7-tetrahydropyrazolo[1,5-a]pyrazin-2-yl)-4-((2-(1,1-difluoroethyl)-6-methylpyrimidin-4-yl)amino)pyridin-2-yl)acetamide trifluoroacetate]	≤ 10	≤ 10
CC(=O)Nc1cc(Nc2cc(C)nc(C(C)(F)F)n2)c(-c2cnc(N(C)C)cn2)cn1 [Example 225, N-(4-((2-(1,1-difluoroethyl)-6-methylpyrimidin-4-yl)amino)-5-(5-(dimethylamino)pyrazin-2-yl)pyridin-2-yl)acetamide]	≤ 10	10 to 100
CC(=O)Nc1cc(Nc2cc(C)nc(C(C)(F)F)n2)c(-c2ccn(CC(C)(C)O)n2)cn1 [Example 228, N-(4-((2-(1,1-difluoroethyl)-6-methylpyrimidin-4-yl)amino)-5-(1-(2-hydroxy-2-methylpropyl)-1H-pyrazol-3-yl)pyridin-2-yl)acetamide]	≤ 10	≤ 10
CCOCCn1ccc(-c2cnc(NC(C)=O)cc2Nc2cc(C)nc(C(C)(F)F)n2)n1 [Example 229, N-(4-((2-(1,1-difluoroethyl)-6-methylpyrimidin-4-yl)amino)-5-(1-(2-ethoxyethyl)-1H-pyrazol-3-yl)pyridin-2-yl)acetamide]	≤ 10	≤ 10
COC(C)(C)Cn1ccc(-c2cnc(NC(C)=O)cc2Nc2cc(C)nc(C(C)(F)F)n2)n1 [Example 230, N-(4-((2-(1,1-difluoroethyl)-6-methylpyrimidin-4-yl)amino)-5-(1-(2-methoxy-2-methylpropyl)-1H-pyrazol-3-yl)pyridin-2-yl)acetamide]	≤ 10	≤ 10
COCc1cnc(-c2cnc(NC(C)=O)cc2Nc2cc(C)nc(C(C)(F)F)n2)s1 [Example 231, N-(4-((2-(1,1-difluoroethyl)-6-methylpyrimidin-4-yl)amino)-5-(5-(methoxymethyl)thiazol-2-yl)pyridin-2-yl)acetamide]	≤ 10	≤ 10
COCc1ncc(-c2cnc(NC(C)=O)cc2Nc2cc(C)nc(C(C)(F)F)n2)s1 [Example 232, N-(4-((2-(1,1-difluoroethyl)-6-methylpyrimidin-4-yl)amino)-5-(2-(methoxymethyl)thiazol-5-yl)pyridin-2-yl)acetamide]	≤ 10	≤ 10
COCc1csc(-c2cnc(NC(C)=O)cc2Nc2cc(C)nc(C(C)(F)F)n2)n1 [Example 233, N-(4-((2-(1,1-difluoroethyl)-6-methylpyrimidin-4-yl)amino)-5-(4-(methoxymethyl)thiazol-2-yl)pyridin-2-yl)acetamide]	≤ 10	≤ 10
CC(=O)Nc1cc(Nc2cc(C)nc(C(C)(F)F)n2)c(-c2csc(N3CCOCC3)n2)cn1 [Example 234, N-(4-((2-(1,1-difluoroethyl)-6-methylpyrimidin-4-yl)amino)-5-(2-morpholinothiazol-4-yl)pyridin-2-yl)acetamide]	≤ 10	≤ 10
CC(=O)Nc1cc(Nc2cc(C)nc(C(C)(F)F)n2)c(-c2ncns2)cn1 [Example 235, N-(4-((2-(1,1-difluoroethyl)-6-methylpyrimidin-4-yl)amino)-5-(1,2,4-thiadiazol-5-yl)pyridin-2-yl)acetamide]	≤ 10	≤ 10
CC(=O)Nc1cc(Nc2cc(C)nc(C(C)(F)F)n2)c(-c2nnc(N(C)C)s2)cn1 [Example 236, N-(4-((2-(1,1-difluoroethyl)-6-methylpyrimidin-4-yl)amino)-5-(5-(dimethylamino)-1,3,4-thiadiazol-2-yl)pyridin-2-yl)acetamide]	≤ 10	≤ 10
CC(=O)Nc1cc(Nc2cc(C)nc(C(C)(F)F)n2)c(-c2cn3c(n2)CN(C)CC3)cn1 [Example 239, N-(4-((2-(1,1-difluoroethyl)-6-methylpyrimidin-4-yl)amino)-5-(7-methyl-5,6,7,8-tetrahydroimidazo[1,2-a]pyrazin-2-yl)pyridin-2-yl)acetamide]	≤ 10	≤ 10
CC(=O)Nc1cc(Nc2cc(C)nc(C(C)(F)F)n2)c(-c2cc3n(n2)CCCN3C)cn1 [Example 240, N-(4-((2-(1,1-difluoroethyl)-6-methylpyrimidin-4-yl)amino)-5-(4-methyl-4,5,6,7-tetrahydropyrazolo[1,5-a]pyrimidin-2-yl)pyridin-2-yl)acetamide]	≤ 10	≤ 10
CC(=O)Nc1cc(Nc2cc(C)nc(C(C)(F)F)n2)c(-c2cc(OC(C)C)ncn2)cn1 [Example 242, N-(4-((2-(1,1-difluoroethyl)-6-methylpyrimidin-4-yl)amino)-5-(6-isopropoxypyrimidin-4-yl)pyridin-2-yl)acetamide]	≤ 10	10 to 100
